# US9649324B2, “Use of tylvalosin as antiviral agent” (ECO ANIMAL HEALTH LIMITED, priority 2006, dated 2017)
# Key:
# [1] = test system: Caco-2 cells; test: Intracellular accumulation and trans-epithelial transport in polarised Caco-2 cells; type: in vitro ADME, human
# Protocol: Caco-2 cells were seeded at a density of 0.8×10^6 cells per well of a Transwell Clear filter 6 well plate, 0.4 μm pore size. The cells were incubated with 2 mL medium in both apical and basolateral chambers. This medium was replaced every 2 days for 10-14 days. Transepithelial resistance was measured using Millicell ERS apparatus (Millipore) at day 7, 10 and/or 14 in order to identify when the cells had become polarised. Readings of >1000 Ω were indicative of polarised cells. […]
# (§1) All the supernatant and cell samples were transported frozen (at approximately −20° C.) to York Bioanalytical Solutions (York, England) for analysis. Briefly, 0.25 g of buffer (RPMI medium containing 10% FCS) was weighed into a polypropylene tube. A 50 μL volume of the appropriate working solution was added to the quality control (QC) samples. Methanol (50 μL) was added to each blank sample used for preparation of calibration standards, recovery samples and reagent blanks. A 2.5 mL volume of 0.1 M phosphate buffer was added to each sample, vortex mixed for approximately 1 min and then centrifuged at 3220×g for 10 min at 4° C.
# (§2) For the liquid-liquid clean-up phase, an aliquot (100 μL) of the supernatant was transferred to a polypropylene tube. The pH was adjusted to pH 8-8.5 by the addition of 0.1 M NaOH, and vortex mixed. Ethyl acetate (5 mL) was added and after capping, the whole mixture was shaken for 10 min and then centrifuged at 3220×g for 10 min at 4° C.
# (§3) Ammonium acetate (20 mM; pH native)—formic acid, 1000:3, v/v (100 μL) was added to each well in a 2 mL polypropylene collection plate. An aliquot of the ethyl acetate mixture (100 μL) was transferred to the polypropylene collection plate and evaporated under nitrogen (40° C.) until the ethyl acetate was fully evaporated whilst the ammonium acetate remained. Methanol (100 μL) was added to each well, excluding the calibration standards.
# (§4) To each well containing a calibration standard, 100 μL of the appropriate calibration working solution was added. Samples were then vortex mixed for at least 10 min and submitted for liquid chromatography with tandem mass spectrometric analysis. The method stated was applicable to the samples of media (and the calibration standards and quality control samples).
# (§5) For the cells, the sample tubes were weighed, and 100 μL of acetonitrile was added. The samples were vortex mixed for 10 sec, then centrifuged at 10285×g at 4° C. for 5 min. The sample was transferred to a polypropylene tube. The original sample tube was washed with 0.1 M phosphate buffer (1 mL). This was transferred to the polypropylene tube. A second wash of 1 mL was made, then a final wash of 0.5 mL. The polypropylene tube was now at the same stage as the end of the liquid extraction, but with the cells present rather than media. This was then taken through the sample preparation as described above. The original sample tubes were allowed to dry (i.e. any remaining solvent evaporated off) and were then reweighed to determine the weight of cells in the sample, to allow the concentration per gram of cells to be determined.
# [2] = test system: pig white blood cells; test: Intracellular accumulation in pig white blood cells; type: in vitro ADME
# Protocol: (§6) Pig blood was collected in Heparin-coated BD vacutainers (6). 20 mL of blood and 30 mL of phosphate buffered saline (PBS) were mixed in a 50 mL conical centrifuge tube. This was repeated in order to obtain 3 such tubes. The mixtures were centrifuged for 10 min at 2050×g. The white blood cells, together with some red blood cells below, were harvested into a 50 mL conical centrifuge tube. PBS was added to about 50 mL. A 63% solution of Percoll was made as follows: 6.3 mL Percoll (Sigma), 1.0 mL 1.5 M NaCl, 2.7 mL H2O. 10 mL of 63% Percoll was added to each of two 50 mL conical centrifuge tubes. 25 mL of the resuspended white blood cells were carefully layered on top of the each of the Percoll solutions. A sharp interface was produced. The material was centrifuged at 3000×g for 10 min. […] The white blood cells were harvested in PBS (50 mL) and centrifuged at 500×g for 10 min. The cell pellet was resuspended in medium (Glasgow minimum essential medium containing penicillin and streptomycin). A viable cell count was made using trypan blue. The same method used for isolation of pig WBCs was used for the chicken WBCs, with the exception that heparin (100 I.U./mL) was prepared and mixed with an equal volume of chicken whole blood.
# Cells were incubated with 10 mg/mL of each antibiotic. All tubes were placed on a rotary mixing machine, at 37° C. Supernatant and cell samples were harvested at the times described in the figure legends. Duplicate samples were used for each antibiotic for each time point.
# as §1, §2, §3, §4
# as §5, with “The original sample tubes were allowed to dry (i.e. any remaining solvent evaporated off) and were then reweighed to determine the weight of cells in the sample, to allow the concentration per gram of cells to be determined.” left out
# [3] = test system: chicken white blood cells; test: Intracellular accumulation in chicken white blood cells; type: in vitro ADME; conditions: chicken white blood cells
# Protocol: as §6
# All tubes were placed on a rotary mixing machine, at 37° C. Supernatant and cell samples were harvested at the times described in the figure legends. Duplicate samples were used for each antibiotic for each time point.
# as §1, §2, §3, §4
# as §5, with “The original sample tubes were allowed to dry (i.e. any remaining solvent evaporated off) and were then reweighed to determine the weight of cells in the sample, to allow the concentration per gram of cells to be determined.” left out
# [4] = test system: endosomal pH; test: Acridine orange assay of endosomal pH (Example 13); type: cell-based
# Protocol: Acridine orange is a dye that causes cells to fluoresce green with the exception of acidic compartments (such as endosomes) that appear red—due to the protonation of the dye and quenching of the green fluorescence. A substance that raises the endosomal pH will prevent the appearance of the red fluorescence. The effect of Aivlosin® and other macrolide antibiotics on a the staining of endosomes by acridine orange in number of cells lines was determined (see FIG. 19). An area of cells grown on a glass coverslip is first selected using a DAPI stain. […] This selection procedure helps reduce any bias in the results. The green and red filters on the epifluorescence microscope were then used to examine about 20 cells. The number of red spots (endosome vesicles) in was determined. The average number of Acridine orange stained endosomes was counted.
# [5] = previous study (Tsuchiya et al., 1981); cited from earlier work
# [6] = Caco-2, 10 μg/mL, apical administration, 240 min
# [7] = Caco-2, 100 μg/mL, apical administration, 30 min
# [8] = Caco-2, 100 μg/mL, apical administration, 240 min
# [9] = Caco-2, 100 μg/mL, apical administration, between 60 min and 120 min
# [10] = Caco-2, 100 μg/mL, basolateral administration, 30 min
# [11] = Caco-2, 100 μg/mL, basolateral administration, 240 min
structure (smiles),measurement,setting,value
"CCC1OC(=O)CC(OC(C)=O)C(C)C(OC2OC(C)C(OC3CC(C)(O)C(OC(=O)CC(C)C)C(C)O3)C(N(C)C)C2O)C(CC=O)CC(C)C(=O)C=CC(C)=CC1COC1OC(C)C(O)C(OC)C1OC (stereo not drawn) [tylvalosin, 3-O acetyl-4″-O-isovaleryltylosin]",average intracellular concentration,"[1]; Caco-2, 10 μg/mL, apical administration, 120 min",42.2 μg/mg cells
same,average intracellular concentration,[1]; [6],34.3 μg/mg cells
same,basolateral chamber content as average % of the apical chamber value,[1]; [6],10.47%
same,intracellular:extracellular ratio (fold concentration),[1]; [6],3.49 fold
same,average intracellular concentration,[1]; [7],428 μg/mg cells
same,intracellular:extracellular ratio,[1]; [7],4.64
same,intracellular concentration,[1]; [8],375 μg/mg cells
same,intracellular:extracellular ratio,[1]; [8],5.85
same,tylvalosin in opposite (basolateral) chamber compared to the administration chamber,[1]; [8],19%
same,"intracellular:extracellular ratio (peak, average value)",[1]; [9],10.23-15.58
same,maximum intracellular concentration,[1]; [9],559.5-620 μg/mg cells
same,average intracellular concentration,[1]; [10],493 μg/mg cells
same,intracellular:extracellular ratio,[1]; [10],7
same,intracellular concentration,[1]; [11],155.5 μg/mg cells
same,intracellular:extracellular ratio,[1]; [11],3.57
same,tylvalosin in opposite (apical) chamber compared to the administration chamber,[1]; [11],22.05%
same,total amount of tylvalosin transported across the cells,"[1]; Caco-2, after 4 h (discussion)",about 20%
same,average intracellular concentration,[2]; 10 min,57.4 μg/mg cells
same,average intracellular:extracellular ratio (IC:EC),[2]; 10 min,8.68
same,average intracellular:extracellular ratio (IC:EC),"[2]; 10 min, listed as Tylvalosin",9
same,intracellular concentration,[2]; 20 min,61.45 μg/mg cells
same,average intracellular concentration,"[3]; 10 μg/mL, 15 min",89.8 μg/mg cells
same,intracellular concentration,"[3]; 10 μg/mL, 60 min",122.9 μg/mg cells
same,intracellular:extracellular ratio,[3]; 60 min,19 fold
same,effect on raising the pH in the endosomes,"[4]; acridine orange stained endosomes, any cell line",raises the pH in endosomes
same,effect on endosomal pH,[4]; epithelial cells,greater effects than tilmicosin
same,lipophilicity,[5],more lipophilic than either tylosin or 3AT
